Experimental data from patent US10336768B2, “Pyrimidine compounds and methods using the same” (Yuma Therapeutics, Inc., priority 2014, dated 2019).
Several values for one entry are separate records, joined by “and”; a condition that tells them apart may be missing. Equal entries are not always repeated.

Experiments:
[1] = system: tau; details: Corcoran et al., 2010; cited from earlier work
[2] = system: T1, His-tagged-Hsp90; test: Hsp90 biochemical assay (AlphaLISA); assay type: binding; details: IC50 class; AlphaLISA (primary assay); read-out: Hsp90 inhibitory activity
T1 construct: fused on or other part: His tag (captured on Ni2+-coated beads)
Protocol: This assay employs biotinylated geldanamycin, His-tagged-Hsp90, and Ni^+2 coated beads. This assay is homogenous and miniaturized to 384-well plates. Measurement of binding activity was performed on an Envision reader. […] This assay is the primary assay for evaluating compounds of the invention.

[3] = system: Hsp70; test: Hsp90 cell based functional assay (Western blot for Hsp70, Hsp90); details: for Hsp 70 agonist activity: concentration at which Hsp70 is increased >2-fold: fold noted in cell: >2-fold; for Hsp 70 agonist activity: EC50 at which Hsp70 is increased two-fold: cells treated 24 h, Western blot; for EC50: read-out: Hsp 70 agonist activity; for Hsp 70 agonist activity, result in words: alternative result printed in the same cell
Protocol: Cells were treated with compounds of the invention for 24 h and then lysed in a buffer containing NP-40, orthovanadate, and protease inhibitors. Western blots were performed with antibodies specific to Hsp70, Hsp90, or actin (as control).

[4] = target: truncated alpha-Hsp90 protein (Homo sapiens, UniProt P07900); test: Hsp90 biochemical assay (fluorescence polarization); assay type: binding; details: footnotes (1)-(9) of Table 3, read-out: Hsp90 FP assay result
Protocol: Hsp90 inhibitory activity of the compounds of the invention was assessed using a fluorescence polarization (FP) assay using FITC-labeled geldanamycin and truncated alpha-Hsp90 protein. Measurement of binding activity was performed on BMG CLARIOstar® reader (BMG Labtech, Ortenberg, Germany).

| SMILES | IC50 [2] [µM] | IC50 [4] | also measured |
| --- | --- | --- | --- |
| O=[Se](=O)(O)O [Sodium selenate] |  |  | efficacy in TMHT tau model [1]: effective in the TMHT tau model |
| Cc1cc(-c2c(Cl)cc(Cl)c3c2CCO3)nc(N)n1 [compound 5, 4-(5,7-Dichloro-2,3-dihydrobenzofuran-4-yl)-6-methylpyrimidin-2-amine] | < 1 |  | Hsp 70 agonist activity: concentration at which Hsp70 is increased >2-fold [3]: >2 fold at 0.4-1.0 μM |
| CCc1cc(-c2c(Cl)cc(Cl)c3c2CCO3)nc(N)n1 [compound 6, 4-(5,7-dichloro-2,3-dihydrobenzofuran-4-yl)-6-ethylpyrimidin-2-amine] | < 1 |  | Hsp 70 agonist activity: EC50 at which Hsp70 is increased two-fold [3]: ≥10 µM |
| CC(C)c1cc(-c2c(Cl)cc(Cl)c3c2CCO3)nc(N)n1 [compound 7, 4-(5,7-dichloro-2,3-dihydrobenzofuran-4-yl)-6-isopropylpyrimidin-2-amine] | < 1 | > 10 µM | EC50 [3]: > 10 µM |
| COc1cc(-c2c(Cl)cc(Cl)c3c2CCO3)nc(N)n1 [compound 8, 4-(5,7-dichloro-2,3-dihydrobenzofuran-4-yl)-6-methoxypyrimidin-2-amine] | < 1 | 5.5 µM and 6.2 µM | EC50 [3]: > 10 µM |
| COc1cc(-c2nc(N)nc(C)c2C)c(Cl)cc1Cl [compound 9, 4-(2,4-Dichloro-5-methoxyphenyl)-5,6-dimethylpyrimidin-2-amine] | < 1 | 1 µM and 1.4 µM | Hsp 70 agonist activity: concentration at which Hsp70 is increased 1.5-fold ([3]; fold noted in cell: 1.5-fold): 1.5-fold at 1 μM |
| Cc1nc(N)nc(-c2c(Cl)cc(Cl)c3c2CCO3)c1C [compound 10, 4-(5,7-Dichloro-2,3-dihydrobenzofuran-4-yl)-5,6-dimethylpyrimidin-2-amine] | < 1 | 2.3 µM and 2.4 µM | Hsp 70 agonist activity: concentration at which Hsp70 is increased >2-fold [3]: >2-fold at 0.4 μM |
| COc1cc(-c2nc(N)nc3c2CCC3)c(Cl)cc1Cl [compound 12, 4-(2,4-Dichloro-5-methoxyphenyl)-6,7-dihydro-5H-cyclopenta[d]pyrimidin-2-amine] | < 1 | 1.7 µM | Hsp 70 agonist activity: concentration at which Hsp70 is increased >2-fold [3]: >2-fold at ≥10 μM |
| Nc1nc2c(c(-c3c(Cl)cc(Cl)c4c3CCO4)n1)CCC2 [compound 13, 4-(5,7-Dichloro-2,3-dihydrobenzofuran-4-yl)-6,7-dihydro-5H-cyclopenta[d]pyrimidin-2-amine] | < 1 | 1.8 µM | EC50 [3]: > 10 µM |
| CN(C)CCOc1cc(-c2nc(N)nc3c2CCC3)c(Cl)cc1Cl [compound 14, 4-(2,4-dichloro-5-(2-(dimethylamino)ethoxy)phenyl)-6,7-dihydro-5H-cyclopenta[d]pyrimidin-2-amine] | < 1 |  | Hsp 70 agonist activity: concentration at which Hsp70 is increased >2-fold [3]: >2-fold at 10 μM |
| COc1cc(-c2nc(N)nc3cc[nH]c23)c(Cl)cc1Cl [compound 19, 4-(2,4-Dichloro-5-methoxyphenyl)-5H-pyrrolo[3,2-d]pyrimidin-2-amine] | < 1 |  | Hsp 70 agonist activity: concentration at which Hsp70 is increased >2-fold [3]: >2-fold at 0.4-1 μM |
| Cn1ccc2nc(N)nc(-c3c(Cl)cc(Cl)c4c3CCO4)c21 [compound 21, 4-(5,7-dichloro-2,3-dihydrobenzofuran-4-yl)-5-methyl-5H-pyrrolo[3,2-d]pyrimidin-2-amine] | 1 to 4 |  | EC50 [3]: > 10 µM |
| CCn1ccc2nc(N)nc(-c3c(Cl)cc(Cl)c4c3CCO4)c21 [compound 22, 4-(5,7-dichloro-2,3-dihydrobenzofuran-4-yl)-5-ethyl-5H-pyrrolo[3,2-d]pyrimidin-2-amine] | 4 to 10 |  | EC50 [3]: > 10 µM |
| CCOC(=O)c1cc2c(-c3c(Cl)cc(Cl)c4c3CCO4)nc(N)nc2s1 [compound 23, Ethyl-2-amino-4-(5,7-dichloro-2,3-dihydrobenzofuran-4-yl)thieno[2,3-d]pyrimidine-6-carboxylate] | 4 to 10 | 11.1 µM | Hsp 70 agonist activity: EC50 at which Hsp70 is increased two-fold [3]: 3.3 µM |
| CCNC(=O)c1cc2c(-c3c(Cl)cc(Cl)c4c3CCO4)nc(N)nc2s1 [compound 24, 2-amino-4-(5,7-dichloro-2,3-dihydrobenzofuran-4-yl)-N-ethylthieno[2,3-d]pyrimidine-6-carboxamide] | < 1 |  | Hsp 70 agonist activity: EC50 at which Hsp70 is increased two-fold [3]: 0.4 µM |
| COc1cc(-c2nc(N)nc3cc[nH]c23)c(Cl)cc1F [compound 25] | 4 to 10 | 12.1 µM and 19.3 µM | Hsp 70 agonist activity, result in words [3]: no observable effect; Hsp 70 agonist activity: fold increase of Hsp70 ([3]; concentration not given, alternative result: no observable effect): 1.5 fold |
| COc1cc(-c2nc(N)nc3ccn(C)c23)c(Cl)cc1F [compound 26] | 1 to 4 | 8.5 µM and 11.2 µM | Hsp 70 agonist activity, result in words [3]: no observable effect; Hsp 70 agonist activity: EC50 at which Hsp70 is increased two-fold [3]: 3.3 µM |
| CN(C)CCOc1cc(-c2nc(N)nc3cc[nH]c23)c(Cl)cc1Cl [compound 27] | 1 to 4 |  | Hsp 70 agonist activity: EC50 at which Hsp70 is increased two-fold [3]: 10 µM |
| NC(=O)c1cc2c(-c3c(Cl)cc(Cl)c4c3CCO4)nc(N)nc2s1 [compound 29] | < 1 |  | Hsp 70 agonist activity: EC50 at which Hsp70 is increased two-fold [3]: 0.4 µM |
| COc1nc(N)nc(-c2cc(OC)c(Cl)cc2Cl)n1 [compound 36] | < 1 |  | Hsp 70 agonist activity: EC50 at which Hsp70 is increased two-fold [3]: >10 µM |
| COc1cc(-c2cc(Cl)nc(N)n2)c(Cl)cc1Cl [compound 39] | < 1 |  | Hsp 70 agonist activity: EC50 at which Hsp70 is increased two-fold [3]: 0.4 µM |
| Nc1nc(-c2c(Cl)cc(Cl)c3c2CCO3)c2cc(C(=O)N3CCCC3)sc2n1 [compound 69, (2-amino-4-(5,7-dichloro-2,3-dihydrobenzofuran-4-yl)thieno[2,3-d]pyrimidin-6-yl)(pyrrolidin-1-yl)methanone] | 1 to 4 |  |  |
| CN(CC(F)(F)F)C(=O)c1cc2c(-c3c(Cl)cc(Cl)c4c3CCO4)nc(N)nc2s1 [compound 70, 2-amino-4-(5,7-dichloro-2,3-dihydrobenzofuran-4-yl)-N-methyl-N-(2,2,2-trifluoroethyl)thieno[2,3-d]pyrimidine-6-carboxamide] | 4 to 10 |  |  |
| CN(CCC#N)C(=O)c1cc2c(-c3c(Cl)cc(Cl)c4c3CCO4)nc(N)nc2s1 [compound 71, 2-amino-N-(2-cyanoethyl)-4-(5,7-dichloro-2,3-dihydrobenzofuran-4-yl)-N-methylthieno[2,3-d]pyrimidine-6-carboxamide] | < 1 |  |  |
| CN(C(=O)c1cc2c(-c3c(Cl)cc(Cl)c4c3CCO4)nc(N)nc2s1)C1COC1 [compound 72, 2-amino-4-(5,7-dichloro-2,3-dihydrobenzofuran-4-yl)-N-methyl-N-(oxetan-3-yl)thieno[2,3-d]pyrimidine-6-carboxamide] | 1 to 4 |  |  |
| CN(C(=O)c1cc2c(-c3c(Cl)cc(Cl)c4c3CCO4)nc(N)nc2s1)C1CC1 [compound 74, 2-amino-N-cyclopropyl-4-(5,7-dichloro-2,3-dihydrobenzofuran-4-yl)-N-methylthieno[2,3-d]pyrimidine-6-carboxamide] | 1 to 4 |  |  |
| CON(C)C(=O)c1cc2c(-c3c(Cl)cc(Cl)c4c3CCO4)nc(N)nc2s1 [compound 75, 2-amino-4-(5,7-dichloro-2,3-dihydrobenzofuran-4-yl)-N-methoxy-N-methylthieno[2,3-d]pyrimidine-6-carboxamide] | < 1 |  |  |
| CCC(=O)c1cc2c(-c3c(Cl)cc(Cl)c4c3CCO4)nc(N)nc2s1 [compound 76, 1-(2-amino-4-(5,7-dichloro-2,3-dihydrobenzofuran-4-yl)thieno[2,3-d]pyrimidin-6-yl)propan-1-one] | < 1 |  |  |
| CC(C)(O)c1cc2c(-c3c(Cl)cc(Cl)c4c3CCO4)nc(N)nc2s1 [compound 77, 2-(2-amino-4-(5,7-dichloro-2,3-dihydrobenzofuran-4-yl)thieno[2,3-d]pyrimidin-6-yl)propan-2-ol] | 1 to 4 |  |  |
